Assay [1] concerns mycoplasmas mycopneumoniae. The experiment in a line: Treatment of mycoplasmoses in pigs. It counts as in vivo, piglets. The conditions noted are these: lungs examined on the 34th day. From the text: Groups of 5 piglets with an average weight of 25 kg were fed with standard piglet feed from the beginning of the test, to which feed the stated quantities of active compound had been added.
On the 4th day after the beginning of the test, the animals were infected with mycoplasmas mycopneumoniae. As from the 10th day the animals were only given feed not containing any active compound. On the 34th day the animals were killed and the lungs were examined for lesions.

Assay [2] deals with mycoplasma strain no. 6442. The assay can be described thus: Mycoplasmas/Inhibitory concentration test, strain 6442. It counts as cell-based. As for the experimental part:
(§1) The test was carried out on microtiter plates. Series of concentrations of the active compound in 0.01 N soda solution were prepared. The concentrations were from 256 μg/ml to 0.0156 μg/ml.
(§2) 0.5 ml of an active compound solution are placed in each identation in the microtiter plate. To this 0.5 ml of an inoculum of mycoplasmas containing about 10^6 organisms per ml were added.
(§3) The inoculum consisted of a modified mycoplasma broth (PPLO) which contained about 20% of horse serum and in which mycoplasmas had been cultured to a titer of about 10^7 organisms per ml (determined by the MacCrady method).
(§4) Then the microtiter plate was incubated at 37° C. and the growth determined after 48, 72 and 96 hours. That concentration of active compound, which prevented any increase in the moculated mycoplasmas was taken as the MIC-value.

The subject of assay [3] is mycoplasma strain no. 8008. The assay can be described thus: Mycoplasmas/Inhibitory concentration test, strain 8008. It counts as cell-based. The procedure:
as §1, §2, §3, §4

Assay [4] deals with mycoplasma strain no. 81115. The experiment in a line: Mycoplasmas/Inhibitory concentration test, strain 81115. It counts as cell-based. The procedure: as §1, §2, §3, §4
The subject of assay [5] is mycoplasma strain no. 348. The assay can be described thus: Mycoplasmas/Inhibitory concentration test, strain 348. It counts as cell-based. The following applies: NO.348, read-out: MIC value, mycoplasma strain no. 348. As for the experimental part: as §1, §2, §3, §4
The test system of assay [6] is mycoplasma strain no. 7981. The assay can be described thus: Mycoplasmas/Inhibitory concentration test, strain 7981. It counts as cell-based. As for the experimental part:
as §1, §2, §3, §4

Assay [7] concerns mycoplasma strain no. 4587. The assay can be described thus: Mycoplasmas/Inhibitory concentration test, strain 4587. It counts as cell-based. The procedure:
as §1, §2, §3, §4

The next assay relates to mycoplasma gallisepticum. The experiment in a line: Treatment of mycoplasmoses in poultry. The conditions noted are these: for clinical symptoms: animals killed 19 days after infection; for Average weight of the animals after 14: after 14 days; for Average weight of the animals after 19: after 19 days; for Average weight of the animals after 0: day 0 (before treatment). It counts as in vivo, chicken. The procedure:
Groups of 40 chicken which were free from mycoplasma gallisepticum and mycoplasma synoviae were infected at the second day after hatching with a pathogenic wild strain of mycoplasma gallisepticum. The treatment began 24 hours after the infection. One group of 40 chickens was not treated and served as a control. The chickens were treated via their drinking water at 5 successive days following the infection. 19 days after the infection the animals were killed, weighed and examined.

[8] abbreviates: NO.6442, series 256 μg/ml to 0.0156 μg/ml, growth after 48, 72 and 96 hours, 37° C., read-out: MIC value, mycoplasma strain no. 6442.
The mark [9] stands for this setting: NO.8008, series 256 μg/ml to 0.0156 μg/ml, growth after 48, 72 and 96 hours, 37° C., read-out: MIC value, mycoplasma strain no. 8008.
The mark [10] stands for this setting: NO.81115, series 256 μg/ml to 0.0156 μg/ml, growth after 48, 72 and 96 hours, 37° C., read-out: MIC value, mycoplasma strain no. 81115.
The mark [11] stands for this setting: NO.7981, series 256 μg/ml to 0.0156 μg/ml, growth after 48, 72 and 96 hours, 37° C., read-out: MIC value, mycoplasma strain no. 7981.
Setting [12] is: NO.4587, series 256 μg/ml to 0.0156 μg/ml, growth after 48, 72 and 96 hours, 37° C., read-out: MIC value, mycoplasma strain no. 4587.
The mark [13] stands for this setting: 250 ppm in drinking water, 5 successive days.
The mark [14] stands for this setting: 500 ppm in drinking water, 5 successive days.

Values after ≈ are worked out from the molar mass of the structure shown. Like-named read-outs stand apart in the source and are kept apart here.

As a reminder, the MIC is the least concentration at which growth counts as inhibited.

Consider `C=C[C@]1(C)C[C@@H](OC(=O)CSCCN(CC)CC)[C@]2(C)[C@H](C)CC[C@]3(CCC(=O)[C@H]32)[C@@H](C)[C@@H]1O` [Tiamulin], for which, in assay [1] (200 mg/kg in the feed, control 10%), the “result (lung lesions)” value is recorded as 5%.
Consider `CC1CCc2cc(F)cc3c(=O)c(C(=O)O)cn1c23` (stereo not drawn) [flumequine], for which the minimal inhibitory concentration (MIC) in assay [2] (setting [8]), in assay [3] (setting [9]), in assay [4] (setting [10]), in assay [5], in assay [6] (setting [11]) and in assay [7] (setting [12]) was 256 µg/mL (≈ 980 µM) each time.
Consider `CCN1CCN(c2cc3c(cc2F)c(=O)c(C(=O)O)cn3C2CC2)CC1` [Compound I], for which the clinical symptoms entry in the assay on mycoplasma gallisepticum (setting [13]) is on record as “none”. Besides, the “Average weight of the animals after 14” value in the assay on mycoplasma gallisepticum (setting [13]) was 355.7. Moreover, in the assay on mycoplasma gallisepticum (setting [13]), the “Average weight of the animals after 19” value was 463.8. In addition, the “Average weight of the animals after 0” value in the assay with mycoplasma gallisepticum (250 ppm in drinking water) turned out to be 47.3. The MIC in assay [2] (NO.6442, read-out: MIC value, mycoplasma strain no. 6442) worked out at 0.15 µg/mL (≈ 0.417 µM); in assay [3] (NO.8008, read-out: MIC value, mycoplasma strain no. 8008) it was 0.25 µg/mL (≈ 0.696 µM); in assay [4] (NO.81115, read-out: MIC value, mycoplasma strain no. 81115) it was 0.5 µg/mL (≈ 1.39 µM); in assay [5], 0.5 µg/mL (≈ 1.39 µM); in assay [6] (NO.7981, read-out: MIC value, mycoplasma strain no. 7981) it was 0.5 µg/mL (≈ 1.39 µM); in assay [7] (NO.4587, read-out: MIC value, mycoplasma strain no. 4587), 0.5 µg/mL (≈ 1.39 µM). Besides, the “result (lung lesions)” value in assay [1] (50 mg/kg in the feed) and in assay [1] (100 mg/kg in the feed) was “no lesions” each time.
Take Tylocin: in the assay with mycoplasma gallisepticum (setting [14]), the clinical symptoms entry is on record as “clearly noticeable”, the “Average weight of the animals after 14” value worked out at 311.9 and the “Average weight of the animals after 19” value is reported as 426.3. Further, the “animals dead (clinical symptoms)” value in the assay on mycoplasma gallisepticum (500 ppm in drinking water, 5 successive days, groups of 40 chickens) was “no animals dead”. Moreover, the “Average weight of the animals after 0” value with mycoplasma gallisepticum (500 ppm in drinking water) came to 48.4.
`CCn1cc(C(=O)O)c(=O)c2ccc(C)nc21` [nalidixic acid]: the minimal inhibitory concentration (MIC) in assay [2] (setting [8]), in assay [3] (setting [9]), in assay [4] (setting [10]), in assay [5], in assay [6] (setting [11]) and in assay [7] (setting [12]) was 128 µg/mL (≈ 551 µM) each time.

Values taken from US5145853A, “Bactericidal formulations for use in veterinary medicine” (Bayer Aktiengesellschaft, priority 1985, dated 1992).
